From PubChem BioAssay (NCI)
Several values for one entry are separate records, joined by “and”; a condition that tells them apart may be missing. Equal entries are not always repeated.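 96-well plates; 48 h exposure; 5 concentrations. Endpoints by linear interpolation between flanking doses. Not reached: highest tested concentration assigned. GI50: concentration for 50% inhibition of growth. TGI: concentration producing complete growth inhibition.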

Experiments:
Assay in all cases: NCI anticancer screen, dose series, 48 h
HCC-2998 colon = tested on: HCC-2998 colon
SNB-75 CNS = tested on: SNB-75 CNS
UACC-62 melanoma = tested on: UACC-62 melanoma
MOLT-4 leukemia = tested on: MOLT-4 leukemia
A549 NSCLC = tested on: A549 NSCLC
TK-10 renal = tested on: TK-10 renal
HOP-92 NSCLC = tested on: HOP-92 NSCLC
K-562 leukemia = tested on: K-562 leukemia
U251 CNS = tested on: U251 CNS
RXF 393 renal = tested on: RXF 393 renal

SMILES	TGI (HCC-2998 colon) [µM]	TGI (SNB-75 CNS) [µM]	TGI (UACC-62 melanoma) [µM]	TGI (MOLT-4 leukemia) [µM]	TGI (A549 NSCLC) [µM]	TGI (TK-10 renal) [µM]	TGI (HOP-92 NSCLC)	TGI (K-562 leukemia) [µM]	TGI (U251 CNS) [µM]	TGI (RXF 393 renal)	GI50 (HCC-2998 colon) [µM]	GI50 (SNB-75 CNS) [µM]	GI50 (UACC-62 melanoma) [µM]	GI50 (MOLT-4 leukemia) [µM]	GI50 (A549 NSCLC) [µM]	GI50 (TK-10 renal) [µM]	GI50 (HOP-92 NSCLC) [µM]	GI50 (K-562 leukemia) [µM]	GI50 (RXF 393 renal) [µM]	GI50 (U251 CNS) [µM]
O=C1C=CC(CC(=O)c2ccc3ccccc3c2)O1 (centres undefined)	31.1	91.2	34.6	65.6	> 100	69.8	47 µM	> 100	32.1	36.6 µM										
Cc1ccc(NC(=O)C(=O)Cc2cc[n+]([O-])cc2)cc1	> 100	> 100	> 100	> 100	> 100	> 100	> 100 µM	> 100	> 100	> 100 µM										
CC(=O)Oc1ccc(C(c2ccc(OC(C)=O)cc2)c2ccccn2)cc1	> 100	> 100	> 100	> 100	> 100	> 100	34.3 µM and > 94.1 µM	> 100	> 100	96.9 µM and > 95.7 µM	11.3	24.8	21.2	40.5	49.7	> 59.7	0.861	39.3	3.67	
CC(C)COC(=O)c1ccc2[nH]c(O)c(C=Nc3ccc(S(N)(=O)=O)cc3)c2c1	9.03	5.15	6.08	11	5.88	4.52	4.22 µM	17.1	4.13	1.61 µM	3.27	1.77	1.91	1.68	1.74	1.65	1.45	2.32	0.747	0.879
O=C(O)/C=C/C(=O)N1C/C(=C\c2ccccc2)C(=O)/C(=C/c2ccccc2)C1	13.1	20.6	8.7	9.26	52	22.8	37.9 µM	7.86	3.79	17.5 µM										
COC1=C2CC(C)CC(OC)C(O)C(C)/C=C(\C)C(OC(N)=O)C(OC)/C=C\C=C(/C)C(=O)NC(=C(/C=N/N3CCCCC3)C1=O)C2=O (centres undefined)	18.9	41	48.1	7.39	46.7	72.1	35.4 µM	21.6	20.8	14.3 µM										
N#CC1=C(Cl)NC(Cl)=C(C#N)C1c1c(Cl)cccc1Cl	47	> 100	73.4	> 100	83.6	> 100	80 µM	46.9	48.5	59 µM										
O=C1NCCS(=O)(=O)/C1=C\C=C\c1cccc(C(F)(F)F)c1	3.72	20.1	3.89	9.54	11.6	13	16.4 µM	25.7	3.86	5.37 µM	1.93	4.36	1.46	2.05	2.98	3.95	5.09	2.48	2.52	1.67
Cc1cccc(Nc2cnc(N)nc2N)c1	> 100	> 100	> 100	> 100	> 100	> 100	> 100 µM	> 100	> 100	> 100 µM										
